Values joined by “and” are separate entries in the source; they are usually repeats but may differ in a detail not shown here. Equal values may be shown once.

The results in this text go back to patent US7754709B2 (Solvay Pharmaceuticals BV, priority 2003, dated 2010).

Format in all cases: cell-based
Assay [1] concerns the target T1, 17β-hydroxysteroid dehydrogenase type 1 (Homo sapiens, UniProt P14061).
T1 construct: expressed in transfected cells; host or cells: MCF-7
T1 sequence (P14061 1-328): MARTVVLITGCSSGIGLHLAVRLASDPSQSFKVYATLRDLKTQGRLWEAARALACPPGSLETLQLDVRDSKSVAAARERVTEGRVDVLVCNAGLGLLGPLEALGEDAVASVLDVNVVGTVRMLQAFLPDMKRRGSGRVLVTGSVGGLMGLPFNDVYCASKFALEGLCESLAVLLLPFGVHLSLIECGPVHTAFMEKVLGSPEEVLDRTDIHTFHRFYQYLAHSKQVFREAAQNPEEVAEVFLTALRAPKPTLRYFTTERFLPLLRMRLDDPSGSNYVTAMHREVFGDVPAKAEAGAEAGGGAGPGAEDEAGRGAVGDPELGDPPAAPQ
The experiment in a line: Inhibition of 17β-HSD type 1 in MCF-7 cells stably expressing the isoenzyme (HPLC, tritium labeled estrone). The following applies: 2 nM estrone; for inhibition at 1 µM: MCF7, 1 μM compound; for inhibition at 1 µM / inhibition at 10 µM: read-out: % Inhibition of the 17β-HSD enzyme type 1 (HSD1); for inhibition at 10 µM: MCF7, 10 μM compound. The text has this:
(§1) Biological Testing Materials and Methods 1. Inhibition of the 17β-hydroxysteroid dehydrogenase type 1, type 2 and type 3 enzyme
(§2) The compounds were screened in respect of 17β-HSD enzyme activity in vitro on established M CF-7 cell lines, each stably expressing one of the respective 17β-HSD isoenzymes. The interconversion of substrate by each isoenzyme and the 17β-HSD inhibiting activity of chemical compounds in these cell lines were detected by HPLC system.
(§3) Varying amounts of the test compounds were incubated in the growth medium of the 17β-HSD expressing cells together tritium labeled substrate (2 nM estrone for 17β-HSD type 1; 2 nM estradiol for 17β-HSD type 2; and 2 nM androstenedione for 17β-HSD type 3). The medium samples were removed after exact incubation time and the reaction is stopped by trichloroacetic acid (TCA). The samples were analyzed by HPLC-coupled flow scintillation analysis.
(§4) For each enzyme type, the HSD-inhibiting activity of an individual test compound was calculated by comparing the conversion of a control sample without any test compound (referred to as “Negative Control”) to the (reduced) conversion of the test sample containing the particular compound to be tested (referred to as “Test Sample”).
(§5) Two concentrations of each compound were used. The number of the compound refers to the numbers indicated in the Experimental Section.

The target in assay [2] is T2, 17β-hydroxysteroid dehydrogenase type 2 (Homo sapiens, UniProt P37059).
T2 construct: expressed in transfected cells; host or cells: MCF-7
T2 sequence (P37059 1-387): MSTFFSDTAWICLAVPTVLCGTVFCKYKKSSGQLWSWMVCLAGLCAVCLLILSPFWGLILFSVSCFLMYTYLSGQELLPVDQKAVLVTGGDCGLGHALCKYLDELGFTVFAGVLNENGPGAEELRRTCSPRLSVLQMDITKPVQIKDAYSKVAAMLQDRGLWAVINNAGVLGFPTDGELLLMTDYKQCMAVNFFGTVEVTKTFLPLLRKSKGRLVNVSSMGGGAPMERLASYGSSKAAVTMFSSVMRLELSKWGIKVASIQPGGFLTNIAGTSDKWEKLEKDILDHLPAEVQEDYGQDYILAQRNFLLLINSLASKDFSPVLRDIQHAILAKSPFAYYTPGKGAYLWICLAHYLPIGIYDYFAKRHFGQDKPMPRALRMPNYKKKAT
The experiment in a line: Inhibition of 17β-HSD type 2 in MCF-7 cells stably expressing the isoenzyme (HPLC, tritium labeled estradiol). The following applies: 2 nM estradiol, read-out: % Inhibition of the 17β-HSD enzyme type 2 (HSD2); for inhibition at 1 µM: MCF7, 1 μM compound; for inhibition at 10 µM: MCF7, 10 μM compound.
Description: as §1, §2, §3, §4, §5

The target of assay [3] is T3, 17β-hydroxysteroid dehydrogenase type 3 (Homo sapiens, UniProt P37058).
T3 construct: expressed in transfected cells; host or cells: MCF-7
T3 sequence (P37058 1-310): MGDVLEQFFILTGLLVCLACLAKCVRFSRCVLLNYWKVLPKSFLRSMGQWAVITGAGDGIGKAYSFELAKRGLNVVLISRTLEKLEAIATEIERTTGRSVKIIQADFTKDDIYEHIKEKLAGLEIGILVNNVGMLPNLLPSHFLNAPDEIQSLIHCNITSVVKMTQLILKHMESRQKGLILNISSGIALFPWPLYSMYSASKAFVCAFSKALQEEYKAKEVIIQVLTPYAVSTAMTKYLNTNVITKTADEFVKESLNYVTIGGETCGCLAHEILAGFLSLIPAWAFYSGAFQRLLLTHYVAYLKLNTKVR
Briefly: Inhibition of 17β-HSD type 3 in MCF-7 cells stably expressing the isoenzyme (HPLC, tritium labeled androstenedione). Particulars: 2 nM androstenedione; for inhibition at 1 µM: MCF7, 1 μM compound; for inhibition at 1 µM / inhibition at 10 µM: read-out: % Inhibition of the 17β-HSD enzyme type 3 (HSD3); for inhibition at 10 µM: MCF7, 10 μM compound.
Description: as §1, §2, §3, §4, §5

For orientation: inhibition means the change of the read-out against control, counted positive when it falls. For `CC1CCc2nc3sc4c(c3c(=O)n2CC1)CCCC4` (stereo not shown) [Compound 14, 9-Methyl-2,3,4,7,8,9,10,11-octahydro-[1]benzothieno[2′,3′:4,5]pyrimido[1,2-a]azepin-13(1H)-one], the inhibition at 1 µM in assay [1] was 12.8%; in assay [2], 5.9%; in assay [3] it was 27.6%. The inhibition at 10 µM worked out at 19.6% in assay [1], 14.9% in assay [2] and 34.2% in assay [3].
Turning to `CC1CCc2c(sc3nc4n(c(=O)c23)CCCCC4)C1` (stereo not shown) [Compound 27, 3-Methyl-2,3,4,7,8,9, 10,11-octahydro-[1]benzothieno[2′,3′: 4,5]pyrimido-[1,2-a]azepin-13(1H)-one], the inhibition at 1 µM stood at 11.4% in assay [1], 5.3% in assay [2] and 22.9% in assay [3]. Moreover, the inhibition at 10 µM was found to be 25.6% in assay [1], 3.2% in assay [2] and 24.9% in assay [3].
Regarding `CCOC(=O)C1CCCn2c1nc1sc3c(c1c2=O)CCCC3=O` (stereo not shown) [Compound 18, 4,12-Dioxo-1,2,3,4,7,9,10,12-octahydro-8H-[1]benzothieno[2,3-d]pyrido[1,2-a]pyrimidine-7-carboxylic acid ethyl ester], the inhibition at 1 µM in assay [1] is 0.5%; in assay [2], 18.7%; in assay [3], -3%. For the same compound, the figures for the inhibition at 10 µM in assay [1], in assay [2] and in assay [3] were 9.5%, 23.8% and 21.3%, respectively.
Regarding `CC1CCc2c(sc3nc4n(c(=O)c23)CCCCC4)C1=O` (stereo not shown) [Compound 28, 2,3,8,9,10,11-Hexahydro-3-methyl-[1]benzothieno[2′,3′: 4,5]pyrimido[1,2-a]azepin-4,13(1H,7H)-dione], the figures for the inhibition at 1 µM in assay [1], in assay [2] and in assay [3] were 14.3%, 18.2% and 7.8%, respectively. Further, the inhibition at 10 µM in assay [1] was 15.3%; in assay [2] it was 18.7%; in assay [3] it was 9.5%.
`O=CC1=C(Cl)c2sc3nc4n(c(=O)c3c2CC1)CCCCCC4C=O` (stereo not shown) [Compound 11, 4-Chloro-1,2,7,9, 10,11,12,14-octahydro-14-oxo-8H-[1]benzothieno[2′,3′:4,5]pyrimido-[1,2-a]-azocine-3,7-dicarbaldehyde]: the inhibition at 1 µM in assay [1] was 4.7%; in assay [2], 16.7%; in assay [3] it was 7.3%. For the same compound, the inhibition at 10 µM stood at 51.1% in assay [1], 28.3% in assay [2] and 31.7% in assay [3].
As for `O=C1CCCc2c1sc1nc3n(c(=O)c21)CCCCCC3` [Compound 3d, 1,2,7,8,9,10,11,12-octahydro[1]benzothieno[2′,3′:4,5]pyrimido-[1,2-a]azocin-4, 14(3H)-dione], the “% Inhibition of the 17β-HSD enzyme type 1 (HSD1)” value was 18.2% in assay [1] (1 μM compound) and 37.6% in assay [1] (10 μM compound). The figures for the inhibition at 1 µM in assay [1], in assay [2] and in assay [3] were 14.3%, 14.1% and 15.3%, respectively. Moreover, the inhibition at 10 µM in assay [1] was 42.9%; in assay [2], 11.1%. For the same compound, the “% Inhibition of the 17β-HSD enzyme type 3 (HSD3)” value is 22.3% in assay [3] (1 μM compound); 16.7% and 8.1% in assay [3] (10 μM compound).
Take `Cn1cnc2sc3c(c2c1=O)CCC(C=O)=C3Cl` [Compound 4e, 8-Chloro-5,6-dihydro-3-methyl[1]benzothieno[2,3-d]pyrimidin-4(3H)-one-7-carboxyaldehyde]: the “% Inhibition of the 17β-HSD enzyme type 1 (HSD1)” value in assay [1] (1 μM compound) is 24.6%; in assay [1] (10 μM compound), 52.1%. Besides, the inhibition at 1 µM in assay [1] came out at 23.5%; in assay [2], 9.6%; in assay [3], 9.8%. The inhibition at 10 µM in assay [1] was 44.4%; in assay [2], 28.3%; in assay [3] it was 14.2%. In addition, the “% Inhibition of the 17β-HSD enzyme type 3 (HSD3)” value in assay [3] (1 μM compound) was 11.1%; in assay [3] (10 μM compound), 17.3%.
On to `O=Cc1ccc2c(sc3nc4n(c(=O)c32)CCCCC4)c1Sc1ccccc1` [Compound 12, 7,8,9,10,11,13-Hexahydro-13-oxo-4-(phenylthio)-[1]benzothieno[2′,3′:4,5]pyrimido[1,2-a]azepine-3-carbaldehyde], for which the inhibition at 1 µM in assay [1] was determined as 15.1%; in assay [2] it was 7%; in assay [3], 8.6%. Also, the inhibition at 10 µM in assay [1] was found to be 87.9%; in assay [2] it was 8.9%; in assay [3], 25.5%.
On to `CC1CCc2nc3sc4c(c3c(=O)n2CC1)CCCC4=O` (stereo not shown) [Compound 17, 2,3,8,9,10,11-Hexahydro-9-methyl-[1]benzothieno[2′,3′: 4,5]pyrimido[1,2-a]azepine-4,13(1H,7H)-dione], for which the figures for the inhibition at 1 µM in assay [1], in assay [2] and in assay [3] were 18.4%, 15.2% and 21.6%, respectively. In addition, the figures for the inhibition at 10 µM in assay [1], in assay [2] and in assay [3] were 39.4%, 20.1% and 32.4%, respectively.
In the case of `O=C(O)C1=C(Cl)c2sc3nc4n(c(=O)c3c2CC1)CCCCC4` [Compound 31, 4-Chloro-1,2,7,8,9, 10,11,13-octahydro-13-oxo-[1]benzothieno[2′,3′: 4,5]pyrimido[1,2-a]azepine-3-carboxylic acid], the inhibition at 1 µM in assay [1] is 2.1%; in assay [2], -0.2%; in assay [3], -6.4%. For the same compound, the inhibition at 10 µM in assay [1] is 6.8%; in assay [2] it was 9.3%; in assay [3], -3.9%.
With `O=C1CCCc2c1sc1nc3n(c(=O)c21)CCC3` [Compound 3f, 2,3,8,9-Tetrahydro[1]benzothieno[2,3-d]pyrrolo[1,2-a]pyrimidine-6,10(1H,7H)-dione], the inhibition at 1 µM in assay [1] is 8.7%; in assay [2], 31.1%; in assay [3], 43.9%. Further, the inhibition at 10 µM in assay [1] was determined as 22%; in assay [2], 21.8%; in assay [3], 40.2%.
With `CCOC(=O)C1CCc2nc3sc4c(c3c(=O)n2CC1)CCCC4` (stereo not shown) [Compound 16, 1,2,3,4,7,8,9,10,11,13-Decahydro-13-oxo-[1]benzothieno[2′,3′:4,5]pyrimido[1,2-a]azepine-9-carboxylic acid ethyl ester], the inhibition at 1 µM was 17.2% in assay [1], 3% in assay [2] and 13.6% in assay [3]. The inhibition at 10 µM in assay [1] is 18.6%; in assay [2], 24.8%; in assay [3], 22.9%.
`Cc1nc2sc3c(c2c(=O)n1C)CCCC3` [Compound 2g, 5,6,7,8-Tetrahydro-2,3-dimethyl[1]benzothieno[2,3-d]pyrimidin-4(3H)-one]: the inhibition at 1 µM in assay [1] turned out to be 30.7%; in assay [2], 44.9%; in assay [3], 51.7%. Besides, the inhibition at 10 µM in assay [1] was 37%; in assay [2], 24.9%; in assay [3], 51.3%.
